Marks after values point to notes of the source that are not given here. Values belong to the compound of their own block, whether it stands above or below them.
How the values were obtained:
MT2 receptor = biological target: T1, MT2 receptor (Homo sapiens, UniProt P49286); assay: Melatonin receptor MT2 binding assay, displacement of [125I]2-Iodomelatonin; conditions: for inhibition at 0.015625 µg/mL: 0.015625 μg/mL; for inhibition at 0.03125 µg/mL: 0.03125 μg/mL; for inhibition at 0.0625 µg/mL: 0.0625 μg/mL; for inhibition at 0.125 µg/mL: 0.125 μg/mL; for inhibition at 0.25 µg/mL: 0.25 μg/mL; for inhibition at 1 µg/mL: 1 μg/mL; for inhibition at 2 µg/mL: 2 μg/mL; for inhibition at 4 µg/mL: 4 μg/mL; for inhibition at 8 µg/mL: 8 μg/mL; for inhibition against MT2 receptor: concentration range from 8 ug/mL to 0.015625 μg/mL
T1 construct: expressed in transfected cells; host or cells: CHO-K1 cells (membranes)
T1 sequence (P49286 1-362): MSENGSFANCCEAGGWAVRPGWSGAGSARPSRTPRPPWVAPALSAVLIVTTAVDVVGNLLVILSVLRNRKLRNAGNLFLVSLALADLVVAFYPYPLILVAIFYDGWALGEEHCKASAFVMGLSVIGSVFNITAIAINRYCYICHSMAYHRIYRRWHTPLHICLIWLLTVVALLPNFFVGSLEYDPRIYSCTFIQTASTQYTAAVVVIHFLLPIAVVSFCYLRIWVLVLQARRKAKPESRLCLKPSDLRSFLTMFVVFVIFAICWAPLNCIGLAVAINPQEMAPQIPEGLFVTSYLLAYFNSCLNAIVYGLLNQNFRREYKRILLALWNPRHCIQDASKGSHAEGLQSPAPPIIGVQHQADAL

MT1 receptor = biological target: T2, MT1 receptor (Homo sapiens, UniProt P48039); assay: Melatonin receptor MT1 binding assay, displacement of [125I]2-Iodomelatonin; conditions: for inhibition at 0.015625 µg/mL: 0.015625 μg/mL; for inhibition at 0.03125 µg/mL: 0.03125 μg/mL; for inhibition at 0.0625 µg/mL: 0.0625 μg/mL; for inhibition at 0.125 µg/mL: 0.125 μg/mL; for inhibition at 0.25 µg/mL: 0.25 μg/mL; for inhibition at 0.5 µg/mL: 0.5 μg/mL; for inhibition at 1 µg/mL: 1 μg/mL; for inhibition at 2 µg/mL: 2 μg/mL; for inhibition at 4 µg/mL: 4 μg/mL; for inhibition at 8 µg/mL: 8 μg/mL; for inhibition against MT1 receptor: concentration range from 8 ug/mL to 0.015625 μg/mL
T2 construct: expressed in transfected cells; host or cells: CHO-K1 cells (membranes)
Description: Human recombinant melatonin receptors (MT1 and MT2) were expressed in CHO-K1 cells and resuspended in buffer. The membranes containing recombinant receptors were incubated with test compounds in combination with 0.05 nM [125I]2-lodomelatonin for 180 minutes at 25° C. Membranes were immobilized on filters before being washed and the [125I]2-Iodomelatonin was counted. Test compounds that bound to MT1 or MT2 in the same binding site as melatonin displaced [125I]2-lodomelatonin, reducing the count. […] 0.00021 μM Melatonin was used as a positive control to displace [125I]2-Iodomelatonin (Paul et al., 1999; Beresford et al., 1998).
All samples were dissolved in 1% DMSO.

Male BALB/C mice [1] = assay: Acute effect on sleep following a single oral administration; assay type: in vivo; conditions: single oral 1 mg/kg
Description: Male BALB/C mice (18 g˜22 g) were randomly assigned to groups of vehicle control (sterile water); positive control group, melatonin 1 mg/kg BW (0.1 g/L); low dose group, a composition derived from enriched for one or more phenylpropanoid acids and benzoxazinoids 250 mg/kg BW (25 g/L in sterile water); middle dose group, a composition derived from enriched for one or more phenylpropanoid acids and benzoxazinoids 500 mg/kg BW (50 g/L in sterile water); and high dose group, a composition derived from enriched for one or more phenylpropanoid acids and benzoxazinoids 1000 mg/kgBW (100 g/L in sterile water). Mice were administered the respective treatment group and observed for 60 min monitor the direct impact of test compounds on sleep following a single oral administration. When naive mice are placed into a supine position, they instantaneously turn to the upright position. However, mice under the hypnotic dose of pentobarbital remain on the supine position for measurable amount of time. Sleeping was indexed as the disappearance of reflex to turnover to the right side, and mouse was considered asleep when the time to turn over to the side was over 30 s after mouse was treated with a composition derived from enriched for one or more phenylpropanoid acids and benzoxazinoids. In the current study, none of the treatment groups induce sleep following a single oral administration (Table 15).

Male BALB/C mice [2] = assay: Sleep latency / sleeping incidence with subthreshold pentobarbital sodium (26 mg/kg i.p.) after 32 days of dosing; assay type: in vivo; conditions: 1 mg/kg
Description: Male BALB/C mice (18 g˜22 g) were randomly assigned to groups of vehicle control (sterile water); positive control group, melatonin 1 mg/kg BW (0.1 g/L); low dose group, a composition derived from enriched for one or more phenylpropanoid acids and benzoxazinoids 250 mg/kg BW (25 g/L in sterile water); middle dose group, a composition derived from enriched for one or more phenylpropanoid acids and benzoxazinoids 500 mg/kg BW (50 g/L in sterile water); and high dose group, a composition derived from enriched for one or more phenylpropanoid acids and benzoxazinoids 1000 mg/kg BW (100 g/L in sterile water). Each animal received the respective dose daily for 32 consecutive days. Mice from each group were intraperitoneally injected with 26 mg/kg pentobarbital sodium (0.1 mL/10 g BW), 15 min after the last dose to induce subthreshold hypnosis. The numbers of mice that lose the reflex to turnover to the right side over 1 min after injection of pentobarbital sodium were recorded for 30 min. The incidence of sleeping mice was analyzed to compare the difference between the tested substance groups and vehicle control. Latency of sleep is the number of animals with loss of the righting reflex in duration of time elapsed after pentobarbital administrations. […] As a result, the subthreshold dose of pentobarbital was given to each mouse 15 min after the last dose of test materials to assess the effect of materials on sleep latency. Thirty minutes post pentobarbital injection, the number of mice with no reflex to turn over to the right side over the duration of 1 min was recorded. Data were reported as incidence of sleeping. […] These incidences were statistically significant for both the high dose of UP165 and melatonin compared to the vehicle control animals. In comparison, the incidence in the vehicle-treated group was only 20%. Positive trends (60% of mice both in the 250 and 500 mg/kg group) were also observed for the low and mid doses of UP165.

Male BALB/C mice [3] = assay: Sleep time induced by pentobarbital sodium (36 mg/kg i.p.) after 32 days of dosing; assay type: in vivo
Description: Male BALB/C mice (18 g˜22 g) were randomly assigned to groups of vehicle control (sterile water); positive control group, melatonin 1 mg/kg BW (0.1 g/L); low dose group, a composition derived from enriched for one or more phenylpropanoid acids and benzoxazinoids 250 mg/kg BW (25 g/L in sterile water); middle dose group, a composition derived from enriched for one or more phenylpropanoid acids and benzoxazinoids 500 mg/kg BW (50 g/L in sterile water); and high dose group, a composition derived from enriched for one or more phenylpropanoid acids and benzoxazinoids 1000 mg/kg BW (100 g/L in sterile water). Each animal received the respective dose daily for 32 consecutive days. 15 min after the last dose, each group of mice was intraperitoneally injected with 36 mg/kg pentobarbital sodium (in 0.1 mL/10 g). The sleep time of each mouse was recorded and the difference of sleep time between a composition derived from enriched for one or more phenylpropanoid acids and benzoxazinoids-treated groups and vehicle control was determined.

T2 sequence (P48039 whole entry): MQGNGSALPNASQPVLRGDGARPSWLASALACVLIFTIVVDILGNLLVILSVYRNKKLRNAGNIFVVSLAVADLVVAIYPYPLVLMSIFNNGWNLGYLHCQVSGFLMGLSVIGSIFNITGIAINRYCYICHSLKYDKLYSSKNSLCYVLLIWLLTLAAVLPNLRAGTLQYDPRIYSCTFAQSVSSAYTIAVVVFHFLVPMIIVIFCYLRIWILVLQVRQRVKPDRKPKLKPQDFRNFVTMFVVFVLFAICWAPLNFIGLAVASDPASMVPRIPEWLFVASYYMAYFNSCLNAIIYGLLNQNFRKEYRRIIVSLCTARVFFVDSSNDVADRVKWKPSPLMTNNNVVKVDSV

Compound: 3-methoxy-hydrocoumaric acid
- MT2 receptor binding (inhibition) (MT2 receptor; isolated compounds, 0.5 μg/mL): 8.9%
- MT2 receptor binding (inhibition) (MT2 receptor; isolated compounds, 2.5 μg/mL): 22.9%

Compound: COc1ccc2nc(O)oc2c1 [6-MBOA, 6-methoxy-2-benzoxazolol, reference compound]
- inhibition at 0.815 µM (MT2 receptor; 0.815 μM): -12%
- inhibition at 1.63 µM (MT2 receptor; 1.63 μM): -4%
- inhibition at 3.26 µM (MT2 receptor; 3.26 μM): 8%
- inhibition at 6.52 µM (MT2 receptor; 6.52 μM): 11%
- inhibition at 13.04 µM (MT2 receptor; 13.04 μM): 15%
- inhibition of 2-lodomelatonin binding to MT2 (MT2 receptor; at the concentrations tested (0.815 to 13.04 μM)): did not inhibit
- inhibition at 0.0032 µM (MT1 receptor; 0.0032 μM): 2%
- inhibition at 0.0064 µM (MT1 receptor; 0.0064 μM): 3%
- inhibition at 0.013 µM (MT1 receptor; 0.013 μM): 8%
- inhibition at 0.025 µM (MT1 receptor; 0.025 μM): 11%
- inhibition at 0.051 µM (MT1 receptor; 0.051 μM): 5%
- inhibition at 0.102 µM (MT1 receptor; 0.102 μM): 1%
- inhibition at 0.204 µM (MT1 receptor; 0.204 μM): 7%
- inhibition at 0.407 µM (MT1 receptor; 0.407 μM): 6%
- inhibition at 0.815 µM (MT1 receptor; 0.815 μM): 7%
- inhibition at 1.63 µM (MT1 receptor; 1.63 μM): 8%
- inhibition of 2-lodomelatonin binding to MT1 (MT1 receptor; at the concentrations tested (3.2 nM to 1.63 μM)): did not inhibit

Compound: COc1cc(/C=C/C(=O)O)ccc1O [Ferulic acid]
- inhibition at 0.5 µg/mL (MT2 receptor; isolated compounds, 0.5 μg/mL): 2.6%
- inhibition at 2.5 µg/mL (MT2 receptor; isolated compounds, 2.5 μg/mL): 1.6%

Compound: COc1ccc2c(c1)OC(O)C(=O)N2 (stereo not drawn) [HMBOA, 2-Hydroxy-7-methoxy-2H-1,4-benzoxazin-3(4H)-one]
- inhibition at 0.5 µg/mL (MT2 receptor; isolated compounds, 0.5 μg/mL): 3.9%
- inhibition at 2.5 µg/mL (MT2 receptor; isolated compounds, 2.5 μg/mL): 28%

Compound: COc1ccc2[nH]cc(CCNC(C)=O)c2c1 [Melatonin]
- Incidence of sleeping (Male BALB/C mice [1]): 0%
- Sleeping No. (Male BALB/C mice [1]; of 15 mice): 0
- Incidence of sleeping (Male BALB/C mice [2]): 80%*
- Sleeping No. (Male BALB/C mice [2]; of 15 mice): 12
- Incidence of sleeping (Male BALB/C mice [2]; listed as melatonin): 80%
- increase in sleep time compared to vehicle control (Male BALB/C mice [3]; 1 mg/kg): 12.0 ± 1.3 min
- Sleep Time (Male BALB/C mice [3]; 1 mg/kg daily for 32 days, Mean ± SD): 42.6 ± 10.7 min

Other lines, results leading:

- inhibition at 0.015625 µg/mL (MT2 receptor): 4%
- inhibition at 0.03125 µg/mL (MT2 receptor): 2%
- inhibition at 0.0625 µg/mL (MT2 receptor): 1%
- inhibition at 0.125 µg/mL (MT2 receptor): -6%
- inhibition at 0.25 µg/mL (MT2 receptor): 5%
- inhibition at 0.5 µg/mL (MT2 receptor; 0.5 μg/mL): 4%
- inhibition at 1 µg/mL (MT2 receptor): 3%
- inhibition at 2 µg/mL (MT2 receptor): 10%
- inhibition at 4 µg/mL (MT2 receptor): 5%
- inhibition at 8 µg/mL (MT2 receptor): 3%
- inhibition against MT2 receptor (MT2 receptor): Neither compound show any inhibition
- inhibition at 0.015625 µg/mL (MT1 receptor): 3%
- inhibition at 0.03125 µg/mL (MT1 receptor): 1%
- inhibition at 0.0625 µg/mL (MT1 receptor): -4%
- inhibition at 0.125 µg/mL (MT1 receptor): -1%
- inhibition at 0.25 µg/mL (MT1 receptor): 0%
- inhibition at 0.5 µg/mL (MT1 receptor): -5%
- inhibition at 1 µg/mL (MT1 receptor): -2%
- inhibition at 2 µg/mL (MT1 receptor): -4%
- inhibition at 4 µg/mL (MT1 receptor): -5%
- inhibition at 8 µg/mL (MT1 receptor): 0%
- inhibition against MT1 receptor (MT1 receptor): Neither compound show any inhibition
Compound: COc1ccc2c(c1)OC(O[C@@H]1O[C@H](CO)[C@@H](O)[C@H](O)[C@H]1O)C(=O)N2 (stereo partly drawn) [MW357, 2-(β-D-Glucopyranosyloxy)-7-methoxy-2H-1,4-benzoxazin-3(4H)-one]

- inhibition at 0.015625 µg/mL (MT2 receptor): -4%
- inhibition at 0.03125 µg/mL (MT2 receptor): -6%
- inhibition at 0.0625 µg/mL (MT2 receptor): -2%
- inhibition at 0.125 µg/mL (MT2 receptor): -6%
- inhibition at 0.25 µg/mL (MT2 receptor): -3%
- inhibition at 0.5 µg/mL (MT2 receptor; 0.5 μg/mL): 7%
- inhibition at 1 µg/mL (MT2 receptor): -2%
- inhibition at 2 µg/mL (MT2 receptor): 0%
- inhibition at 4 µg/mL (MT2 receptor): 3%
- inhibition at 8 µg/mL (MT2 receptor): 4%
- inhibition against MT2 receptor (MT2 receptor): Neither compound show any inhibition
- inhibition at 0.015625 µg/mL (MT1 receptor): 2%
- inhibition at 0.03125 µg/mL (MT1 receptor): -3%
- inhibition at 0.0625 µg/mL (MT1 receptor): -6%
- inhibition at 0.125 µg/mL (MT1 receptor): -2%
- inhibition at 0.25 µg/mL (MT1 receptor): 6%
- inhibition at 0.5 µg/mL (MT1 receptor): 6%
- inhibition at 1 µg/mL (MT1 receptor): 1%
- inhibition at 2 µg/mL (MT1 receptor): -1%
- inhibition at 4 µg/mL (MT1 receptor): -5%
- inhibition at 8 µg/mL (MT1 receptor): 3%
- inhibition against MT1 receptor (MT1 receptor): Neither compound show any inhibition
Compound: COc1ccc2c(c1)OC(O[C@@H]1O[C@H](CO)[C@@H](O)[C@H](O)[C@H]1O)C(=O)N2OC (stereo partly drawn) [MW387, 2-(β-D-Glucopyranosyloxy)-4,7-dimethoxy-2H-1,4-benzoxazin-3(4H)-one]

- inhibition at 5 µg/mL (MT2 receptor; isolated compounds, 5 μg/mL): 69%
- inhibition at 25 µg/mL (MT2 receptor; isolated compounds, 25 μg/mL): 94%
Compound: O=C(O)CCc1ccc(O)cc1 [Phloretic acid]

- inhibition at 0.5 µg/mL (MT2 receptor; isolated compounds, 0.5 μg/mL): 0.5%
- inhibition at 2.5 µg/mL (MT2 receptor; isolated compounds, 2.5 μg/mL): 6.7%
Compound: O=C(O)/C=C/c1ccc(O)cc1 [p-coumaric acid]
